These are literature values, as cited in publication PMC12444507 (ACS Omega, 2025).

Molecules are shown by their SMILES.

For this data set, the system named is nirmatrelvir-resistant E166 V-carrying SARS-CoV-2^E166V. The conditions noted are these: cited from earlier work.

Turning to `CC(C)(C)[C@H](NC(=O)C(F)(F)F)C(=O)N1C[C@H]2[C@@H]([C@H]1C(=O)N[C@@H](C[C@@H]1CCNC1=O)C(=O)c1nc3cc(F)ccc3s1)C2(C)C` [TKB272 (8)], the “antiviral activity against SARS-CoV-2^E166V” value is recorded as “substantial antiviral activity”.
